From article PMC4610307 (Journal of Medicinal Chemistry, 2015) come the findings set out here.

In experiment [1] the target is T1, PRMT1 (Homo sapiens, UniProt Q99873). The experiment in a line: IC50 and nH determination, PRMT1. Type of experiment: biochemical.
A further experiment deals with T2, CARM1/PRMT4 (Homo sapiens, UniProt Q86X55).
T2 sequence (Q86X55 1-608): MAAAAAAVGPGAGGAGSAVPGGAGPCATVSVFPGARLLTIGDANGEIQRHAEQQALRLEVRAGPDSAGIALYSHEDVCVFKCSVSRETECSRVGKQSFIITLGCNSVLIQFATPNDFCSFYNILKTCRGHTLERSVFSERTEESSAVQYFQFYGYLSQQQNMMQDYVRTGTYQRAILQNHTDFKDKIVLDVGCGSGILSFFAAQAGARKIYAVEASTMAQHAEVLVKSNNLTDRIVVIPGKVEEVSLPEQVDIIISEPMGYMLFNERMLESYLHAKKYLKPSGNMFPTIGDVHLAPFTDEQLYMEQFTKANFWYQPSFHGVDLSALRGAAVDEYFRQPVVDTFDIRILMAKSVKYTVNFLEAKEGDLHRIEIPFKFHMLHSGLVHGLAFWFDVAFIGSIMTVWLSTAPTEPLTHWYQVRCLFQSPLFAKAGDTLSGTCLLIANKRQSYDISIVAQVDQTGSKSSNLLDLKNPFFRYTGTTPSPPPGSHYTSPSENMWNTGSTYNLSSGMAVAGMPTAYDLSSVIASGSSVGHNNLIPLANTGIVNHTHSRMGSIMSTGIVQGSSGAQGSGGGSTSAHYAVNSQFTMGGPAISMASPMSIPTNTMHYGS
Description: IC50 and nH determination, CARM1. The experiment is classed as biochemical. To be noted: ratio of IC50 values.

In a further experiment the target is PRMT8 (Homo sapiens, UniProt Q9NR22). The experiment in a line: IC50 and nH determination, PRMT8. Type of experiment: biochemical. To be noted: ratio of IC50 values.
Chain of PRMT8 (Q9NR22 whole entry, species assumed): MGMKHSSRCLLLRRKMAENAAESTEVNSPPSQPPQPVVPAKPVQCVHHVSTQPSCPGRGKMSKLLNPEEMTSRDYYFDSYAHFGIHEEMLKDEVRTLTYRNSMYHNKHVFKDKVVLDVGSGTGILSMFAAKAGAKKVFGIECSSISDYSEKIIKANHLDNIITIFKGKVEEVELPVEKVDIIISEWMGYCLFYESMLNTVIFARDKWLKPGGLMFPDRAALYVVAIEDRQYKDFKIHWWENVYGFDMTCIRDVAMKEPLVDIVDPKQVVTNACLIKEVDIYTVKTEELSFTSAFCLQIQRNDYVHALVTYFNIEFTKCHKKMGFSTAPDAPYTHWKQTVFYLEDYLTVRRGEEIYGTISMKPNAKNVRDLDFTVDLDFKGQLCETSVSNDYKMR
The next experiment has as its target PRMT5 (Homo sapiens, UniProt O14744). The experiment in a line: IC50 and nH determination, PRMT5. To be noted: ratio of IC50 values. Type of experiment: biochemical.
Another experiment addresses His6x-PRMT1 (Homo sapiens, UniProt Q99873). Description: Single-dose inhibition study with PRMT1 enzyme. The experiment is classed as biochemical. To be noted: compound at 10 μM, N.I. = no inhibition.
Experiment [2] deals with total protein arginine methylation in Meg01, MOLM13, and HEL cells. Description: Western blot of total protein arginine methylation in treated leukemia cells. Type of experiment: cell-based. To be noted: 24 h of treatment; anti-methyl-R antibodies.
Experiment [3] deals with T1, PRMT1. Description: Fluorescence titration of compound 50 by PRMT1. To be noted: excitation 620 nm. The experiment is classed as binding.
Another experiment concerns HEL cells. The experiment in a line: Cell viability assay. The experiment is classed as cell-based.
For the next experiment, the system named is Meg01 cells. The experiment in a line: Cell viability assay. Type of experiment: cell-based.
The test system of a further experiment is MOLM13 cells. Description: Cell viability assay. The experiment is classed as cell-based.

T1 sequence (Q99873 1-353 isoform Q99873-3): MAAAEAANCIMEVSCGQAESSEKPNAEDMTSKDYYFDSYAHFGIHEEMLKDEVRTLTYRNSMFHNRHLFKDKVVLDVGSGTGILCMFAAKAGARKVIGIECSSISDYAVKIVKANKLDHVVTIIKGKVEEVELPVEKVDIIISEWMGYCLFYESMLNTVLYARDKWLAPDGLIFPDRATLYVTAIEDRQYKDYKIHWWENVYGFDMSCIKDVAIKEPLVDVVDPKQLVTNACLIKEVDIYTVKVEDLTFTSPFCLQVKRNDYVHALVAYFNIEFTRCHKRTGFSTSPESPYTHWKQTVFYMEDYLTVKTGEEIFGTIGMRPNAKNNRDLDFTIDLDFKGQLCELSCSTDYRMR
Chain of His6x-PRMT1 (Q99873 1-353 isoform Q99873-3): as above
Chain of PRMT5 (O14744 whole entry, species assumed): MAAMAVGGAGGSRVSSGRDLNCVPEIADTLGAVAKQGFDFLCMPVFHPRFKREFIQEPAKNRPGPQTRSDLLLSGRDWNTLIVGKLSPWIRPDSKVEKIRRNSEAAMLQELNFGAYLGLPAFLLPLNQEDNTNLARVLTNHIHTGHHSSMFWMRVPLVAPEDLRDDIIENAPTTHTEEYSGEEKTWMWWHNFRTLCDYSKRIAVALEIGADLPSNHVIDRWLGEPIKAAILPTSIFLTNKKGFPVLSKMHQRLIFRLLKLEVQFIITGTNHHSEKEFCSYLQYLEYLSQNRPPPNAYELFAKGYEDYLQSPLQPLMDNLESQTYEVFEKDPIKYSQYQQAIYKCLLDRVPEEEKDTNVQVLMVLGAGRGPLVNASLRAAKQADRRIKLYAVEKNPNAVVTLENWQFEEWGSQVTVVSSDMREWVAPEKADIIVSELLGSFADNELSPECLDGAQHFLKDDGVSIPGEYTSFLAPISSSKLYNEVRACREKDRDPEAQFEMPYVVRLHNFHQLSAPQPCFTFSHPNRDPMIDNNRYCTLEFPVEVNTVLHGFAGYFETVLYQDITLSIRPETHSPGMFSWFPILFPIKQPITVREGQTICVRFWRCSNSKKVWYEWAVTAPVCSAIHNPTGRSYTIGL
Chain of PRMT5 (Q9BQA1 whole entry partner, species assumed): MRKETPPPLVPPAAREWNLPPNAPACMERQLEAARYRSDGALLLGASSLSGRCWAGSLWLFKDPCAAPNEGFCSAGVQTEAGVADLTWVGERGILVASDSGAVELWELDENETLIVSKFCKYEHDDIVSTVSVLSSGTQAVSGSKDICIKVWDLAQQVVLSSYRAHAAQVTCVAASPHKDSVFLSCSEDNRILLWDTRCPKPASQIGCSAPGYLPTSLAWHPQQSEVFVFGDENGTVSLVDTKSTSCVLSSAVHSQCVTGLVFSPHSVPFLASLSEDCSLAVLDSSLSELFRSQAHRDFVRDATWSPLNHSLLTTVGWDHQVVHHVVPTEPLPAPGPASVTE

Turning to `CC1(C)C(/C=C/C=C2/N(CCCc3ccccc3)c3ccc(Cl)cc3C2(C)C)=[N+](CCCc2ccccc2)c2ccc(Cl)cc21.[Br-]` [Compound 24, 5-Chloro-2-((E)-3-((E)-5-chloro-3,3-dimethyl-1-(3-phenylpropyl)indolin-2-ylidene)prop-1-en-1-yl)-3,3-dimethyl-1-(3-phenylpropyl)-3H-indol-1-ium Bromide], at PRMT1 [1] (overall statement), the “selectivity for PRMT1 over other PRMTs (CARM1, PRMT5, and PRMT8)” value was “no selectivity”.

Consider `C(/C=C/c1sc2c3ccccc3ccc2[n+]1CCCc1ccccc1)=C1/Sc2c(ccc3ccccc23)N1CCCc1ccccc1.[I-]` [Compound 47, 3-(3-Phenylpropyl)-2-((1E,3Z)-3-(3-(3-phenylpropyl)naphtho[2,1-d]thiazol-2(3H)-ylidene)prop-1-en-1-yl)naphtho[2,1-d]thiazol-3-ium Iodide], for which the “selectivity for PRMT1 over CARM1” value on CARM1/PRMT4 is “about 2 fold”. Further, the “selectivity for PRMT1 over PRMT8” value at PRMT8 is “more than 9 fold”. Moreover, the “selectivity for PRMT1 over PRMT5” value on PRMT5 is reported as “about 2 fold”.

Consider `CCN1/C(=C/C(C)=C/c2sc3c4ccccc4ccc3[n+]2CC)Sc2c1ccc1ccccc21` [Compound 48, 3-Ethyl-2-((1E,3Z)-3-(3-ethylnaphtho[2,1-d]thiazol-2(3H)-ylidene)-2-methylprop-1-en-1-yl)naphtho[2,1-d]thiazol-3-ium Iodide], for which, on His6x-PRMT1 (read-out: Inhibition (10 μM), PRMT1), the inhibition at 10 µM worked out at 90%.

With `CCCCN1/C(=C/C=C(Br)/C=C/C2=[N+](CCCC)c3ccc(Br)cc3C2(C)C)C(C)(C)c2cc(Br)ccc21.[I-]` [Compound 50, 5-Bromo-2-((1E,3Z)-3-bromo-5-((E)-5-bromo-1-butyl-3,3-dimethylindolin-2-ylidene)penta-1,3-dien-1-yl)-1-butyl-3,3-dimethyl-3H-indol-1-ium Iodide], the “total protein arginine methylation level” value in [2] is “significant loss of total protein arginine methylation”. The “fluorescence intensity increase upon binding to PRMT1” value on PRMT1 [3] is listed as “about 6 fold”. Further, the “concentration that significantly inhibited leukemia cell growth” value in the experiment on HEL cells was 200 nM; in the experiment on Meg01 cells it was 100 nM; with MOLM13 cells, 100 nM.

With `CCCCN1/C(=C/C=C/C2=[N+](CCCC)c3ccccc3C2(C)C)C(C)(C)c2ccccc21.[I-]` [Compound E-6], the “Inhibition (10 μM)” value at His6x-PRMT1 (PRMT1, 10 µM) is reported as “no inhibition”.

`CC1(C)C(/C=C/C=C2/N(CCCc3ccccc3)c3ccc4ccccc4c3C2(C)C)=[N+](CCCc2ccccc2)c2ccc3ccccc3c21.[Br-]` [Compound E-8]: the “fold more potent on PRMT1 than naphthothiazolium counterpart 47” value on PRMT1 [1] (IC50 0.61 μM vs 3.05 μM) is reported as “about 5 fold”.
